Laboratory results: patent US6972297B2, “2-Hydroxy-mutilin carbamate derivatives for antibacterial use” (SmithKline Beecham p.l.c., priority 2000, dated 2005)

Tests used:
[1] = test system: Staphylococcus aureus Oxford; assay: conventional MIC assay, Staphylococcus aureus Oxford; type: cell-based
Protocol: (§1) Compounds of the present invention were assessed for anti-bacterial activity in a conventional MIC assay against a range of pathogenic organisms.

[2] = test system: Moraxella catarrhalis Ravasio; assay: conventional MIC assay, Moraxella catarrhalis Ravasio; type: cell-based
Protocol: as §1

[3] = test system: Haemophilius influenzae Q1; assay: conventional MIC assay, Haemophilius influenzae Q1; type: cell-based
Protocol: as §1

[4] = test system: Streptococcus pneumoniae 1629; assay: conventional MIC assay, Streptococcus pneumoniae 1629; type: cell-based
Protocol: as §1

[5] = intrinsic clearance in human liver microsome preparations; type: in vitro ADME; conditions: in the presence of human liver microsomes; R1=2-amino-4-pyridyl, R2=vinyl

MIC [1] [µg/mL] | MIC [2] [µg/mL] | MIC [3] [µg/mL] | MIC [4] [µg/mL] | intrinsic clearance (CLi, a measure of rate of metabolism) [5] [ml/min/g liver] | Compound
≤ 4 | ≤ 4 | ≤ 4 | ≤ 4 |  | CC[C@]1(C)C[C@@H](OC(=O)NC(=O)c2cccc(N)n2)[C@]2(C)C(C)CC[C@]3(C[C@H](O)C(=O)C32)[C@@H](C)[C@@H]1O (stereo partly drawn) [Example 32, (6-aminopyridin-2-ylcarbonyl)carbamic Acid 19,20-dihydro-2-(S)-hydroxymutilin 14-ester]
≤ 4 | ≤ 4 | ≤ 4 | ≤ 4 |  | CC[C@]1(C)CC(OC(=O)NC(=O)c2cnc(OC)nc2)[C@]2(C)C(C)CC[C@]3(C[C@H](O)C(=O)C23)[C@@H](C)[C@@H]1O (stereo partly drawn) [Example 38, (2-Methoxypyrimidin-5-ylcarbonyl)carbamic Acid 19,20-dihydro-2-(S)-hydroxymutilin 14-ester]
≤ 4 | ≤ 4 | ≤ 4 | ≤ 4 |  | C=C[C@]1(C)C[C@@H](OC(=O)NC(=O)c2cnc(N)c([N+](=O)[O-])c2)[C@]2(C)C(C)CC[C@]3(C[C@H](O)C(=O)C32)[C@@H](C)[C@@H]1O (stereo partly drawn) [Example 22, (6-Amino-5-nitronicotinoyl)carbamic Acid 2-(S)-hydroxymutilin 14-ester]
≤ 4 | ≤ 4 | ≤ 4 | ≤ 4 |  | CC[C@]1(C)CC(OC(=O)NC(=O)c2ccc(N)nc2)[C@]2(C)C(C)CC[C@]3(C[C@H](O)C(=O)C23)[C@@H](C)[C@@H]1O (stereo partly drawn) [Example 39, (6-Aminonicotinoyl)carbamic Acid 19,20-dihydro-2-(S)-hydroxymutilin 14-ester]
≤ 4 | ≤ 4 | ≤ 4 | ≤ 4 |  | C=C[C@]1(C)C[C@@H](OC(=O)NC(=O)c2csc(C3CCN(CC(N)=O)CC3)n2)[C@]2(C)C(C)CC[C@]3(C[C@H](O)C(=O)C32)[C@@H](C)[C@@H]1O (stereo partly drawn) [Example 30, [2-(1-Carboxamidomethylpiperidin-4-yl)thiazole-4-carbonyl]carbamic Acid 2-(S)-hydroxymutilin 14-ester]
≤ 4 | ≤ 4 | ≤ 4 | ≤ 4 |  | CC[C@]1(C)CC(OC(=O)NC(=O)c2cnc(NC)nc2)[C@]2(C)C(C)CC[C@]3(C[C@H](O)C(=O)C23)[C@@H](C)[C@@H]1O (stereo partly drawn) [Example 37, (2-Methylaminopyrimidin-5-ylcarbonyl)carbamic Acid 19,20-dihydro-2-(S)-hydroxymutilin 14-ester]
≤ 4 | ≤ 4 | ≤ 4 | ≤ 4 |  | CC[C@]1(C)CC(OC(=O)NC(=O)c2cnc(N)s2)[C@]2(C)C(C)CC[C@]3(C[C@H](O)C(=O)C23)[C@@H](C)[C@@H]1O (stereo partly drawn) [Example 35, (2-Aminothiazol-5-ylcarbonyl)carbamic Acid 19,20-dihydro-2-(S)-hydroxymutilin 14-ester]
≤ 4 | ≤ 4 | ≤ 4 | ≤ 4 |  | CC[C@]1(C)CC(OC(=O)NC(=O)c2cnc3[nH]c(=O)cnc3c2)[C@]2(C)C(C)CC[C@]3(C[C@H](O)C(=O)C23)[C@@H](C)[C@@H]1O (stereo partly drawn) [Example 34, (3-Oxo-3,4-dihydropyrido[2,3-b]pyrazin-7-ylcarbonyl)carbamic Acid 19,20-dihydro-2-(S)-hydroxymutilin 14-ester]
 |  |  |  | 6.5 | C=C[C@]1(C)C[C@@H](OC(=O)NC(=O)c2ccnc(N)c2)[C@]2(C)C(C)CC[C@]3(C[C@H](O)C(=O)C32)[C@@H](C)[C@@H]1O (stereo partly shown) [Example 2]
≤ 4 | ≤ 4 | ≤ 4 | ≤ 4 |  | C=C[C@]1(C)C[C@@H](OC(=O)NC(=O)c2ccc(N)nc2)[C@]2(C)C(C)CC[C@]3(C[C@H](O)C(=O)C32)[C@@H](C)[C@@H]1O (stereo partly shown) [Example 1]
≤ 4 | ≤ 4 | ≤ 4 | ≤ 4 |  | C=C[C@]1(C)C[C@@H](OC(=O)NC(=O)c2cc(OC)nc(N)n2)[C@]2(C)C(C)CC[C@]3(C[C@H](O)C(=O)C32)[C@@H](C)[C@@H]1O (stereo partly drawn) [Example 23, (2-Amino-6-methoxypyrimidin-4-ylcarbonyl)carbamic Acid 2-(S)-hydroxymutilin 14-ester]
≤ 4 | ≤ 4 | ≤ 4 | ≤ 4 |  | CC[C@]1(C)CC(OC(=O)NC(=O)c2cnc(OC)c(N)c2)[C@]2(C)C(C)CC[C@]3(C[C@H](O)C(=O)C23)[C@@H](C)[C@@H]1O (stereo partly drawn) [Example 36, (5-Amino-6-methoxynicotinoyl)carbamic Acid 19,20-dihydro-2-(S)-hydroxymutilin 14-ester]

Compound | MIC [1] [µg/mL] | MIC [2] [µg/mL] | MIC [3] [µg/mL] | MIC [4] [µg/mL] | intrinsic clearance (CLi, a measure of rate of metabolism) [5] [ml/min/g liver]
C=C[C@]1(C)C[C@@H](OC(=O)NC(=O)c2ccc(N)nn2)[C@]2(C)C(C)CC[C@]3(C[C@H](O)C(=O)C32)[C@@H](C)[C@@H]1O.Cl (stereo partly drawn) [Example 27, (3-Amino-6-pyridazinylcarbonyl)carbamic Acid 2-(S)-hydroxymutilin 14-ester Hydrochloride] | ≤ 4 | ≤ 4 | ≤ 4 | ≤ 4 | 
